The subject of one test is tumor cells in culture. The test is described as follows: Microtiter well assay of drug/radiation interaction (FIGS. 8A-8C). The following applies: Taxol 8.5 ng/ml or 42.5 ng/ml + 2 Gy and 4 Gy versus radiation-only. The format is cell-based. The text has this:
The microtiter well assay is ideally suited for examination of the interaction of chemotherapeutic agents and radiation. Issues such as the differential sensitivity of drug/radiation combinations and the timing of drug/radiation combinations may be directly addressed with this system.

Test [1] relates to human brain tumor and human ovarian tumor cells. Kind of test: Combined modality drug/radiation microtiter assay (Example 8). The format is cell-based. To be noted: Taxol 0.5-25.0 μM with 2 Gy, or Taxol 5 μM with 1 Gy-6 Gy; through five days post-treatment.
Description: Twenty-four hours post-plating, cells in the microtiter plate wells were exposed to the chemotherapeutic agent Taxol. One set of plates was designed to have escalating Taxol doses with (0.5-25.0 μM) with a fixed radiation dose (2 Gy). A second set of plates was designed to have a fixed Taxol dose (5 μM) with an escalating radiation dose (1 Gy-6 Gy). The cells in the plates were irradiated using a Siemans Stabilipan X-ray machine operating at 250 kVp, 15 mA with a dose rate of 75 rad/min.
For each of the two treatment schema, cell number per well was monitored as a function of time through five days post-treatment. Cell number relative to controls was determined and survival curves were fit.
The test system of test [2] is human ovarian tumor cells. The test is described as follows: Combination chemotherapy microtiter assay (Example 5). The following applies: four tumor specimens.
The test system of a further test is fibroblast cell line. Kind of test: Immunoperoxidase staining for intermediate filaments. In kind it is cell-based. The following applies: immunoperoxidase technique, cells in culture. The text has this: (§1) The technique is practiced as follows. The same cell culturing and well distribution process is used as in the cytotoxicity assay described above, but rather than exposing the cells to chemotherapeutic or other agents, the cells are instead fixed and stained. With the stain or stain cocktail described below, the epithelial cells are identified by their intermediate filaments and/or specific membrane antigens by means of a monoclonal antibody immunoperoxidase technique. […] The fixed stained cells are then counted. If the specimen is positive for epithelial cells, the process is complete. If the specimen is negative for epithelial cells, an independent fixing and staining process is subsequently completed, with fresh cells from identical wells, using Vimentin as a stain to confirm the non-epithelial nature of the cells.
(§2) Many tumor specimens will contain a mixture of cancer and normal cells. Although in many cases tumor cells will readily grow in tissue culture while the normal cells will not, it is important to be able to distinguish the two cell types. Using immunoperoxidase techniques to stain cells for various intermediate filaments, the differences between normal (fibroblast-like) cells and cells from epithelial tumors were characterized. These techniques can also be used to identify other tumor cell characteristics which may have prognostic value. […]

Test [3] has as its system epithelial tumor cell lines. Described as above. The following applies: immunoperoxidase technique, cells in culture. In kind it is cell-based.
Description: as §1, §2

The subject of a further test is human breast tumor cells. The test is described as follows: Hormonal therapy inhibition of cell proliferation (Example 6). The format is cell-based.

The values below come from patent publication US20040086888A1, “Method for tandem genomic/proteomic analysis of proliferating cells” (priority 2003, published 2004).

Turning to `CC(=O)O[C@H]1C(=O)[C@@]2(C)[C@H]([C@H](OC(=O)c3ccccc3)[C@]3(O)C[C@H](OC(=O)[C@H](O)[C@@H](NC(=O)c4ccccc4)c4ccccc4)C(C)=C1C3(C)C)[C@]1(OC(C)=O)CO[C@@H]1C[C@@H]2O` [Taxol], in the test on tumor cells in culture, the “effect on radiation response (survival rates)” value is reported as “enhancement of radiation response”. For the same compound, the “cell killing in combination with radiation (cell number relative to controls, survival curves)” value in test [1] was “Both additive and synergistic cell killing were noted”. Further, the “cell number relative to control” value in test [2] (escalating Taxol (1.0, 5.0, 25 μM) with fixed carboplatin (200 μM)) was “a dose response relationship was observed”.
Vimentin: the staining of fibroblasts entry in the test with fibroblast cell line was “all fibroblast cells were positive”. The “staining of epithelial tumor cells” value in test [3] is on record as “mildly positive”.
With `N.N.O=C([O-])C1(C(=O)[O-])CCC1.[Pt+2]` [carboplatin], in test [2] (fixed Taxol (5 μM) with escalating carboplatin (50, 200, 1000 μM)), the “cell number relative to control” value is listed as “a dose response relationship was observed”.
For `CC/C(=C(\c1ccccc1)c1ccc(OCCN(C)C)cc1)c1ccccc1` [Tamoxifen], the “inhibition of cell proliferation (cell number relative to control)” value with human breast tumor cells (10 nM to 20 μM, six doses, 24 h exposure, then 72 h incubation, four breast tumor specimens) is listed as “two of the four breast specimens tested showed an inhibition of cell proliferation”. Further, the “concentration range in which the responses occurred” value with human breast tumor cells (range tested 10 nM to 20 μM) is reported as “mid-to-high”.
